Reference: US20250215029A1 (Recludix Pharma, Inc., priority 2022, published 2025)
Where two headings read alike, the source gives them in different places.

Target: T1, pY641-STAT6 in PBMC (Homo sapiens, UniProt P42226)
T1 construct: Cryopreserved Peripheral Blood Mononuclear Cells (PBMC) are from AllCells; host or cells: cryopreserved PBMC
T1 sequence (P42226 1-847): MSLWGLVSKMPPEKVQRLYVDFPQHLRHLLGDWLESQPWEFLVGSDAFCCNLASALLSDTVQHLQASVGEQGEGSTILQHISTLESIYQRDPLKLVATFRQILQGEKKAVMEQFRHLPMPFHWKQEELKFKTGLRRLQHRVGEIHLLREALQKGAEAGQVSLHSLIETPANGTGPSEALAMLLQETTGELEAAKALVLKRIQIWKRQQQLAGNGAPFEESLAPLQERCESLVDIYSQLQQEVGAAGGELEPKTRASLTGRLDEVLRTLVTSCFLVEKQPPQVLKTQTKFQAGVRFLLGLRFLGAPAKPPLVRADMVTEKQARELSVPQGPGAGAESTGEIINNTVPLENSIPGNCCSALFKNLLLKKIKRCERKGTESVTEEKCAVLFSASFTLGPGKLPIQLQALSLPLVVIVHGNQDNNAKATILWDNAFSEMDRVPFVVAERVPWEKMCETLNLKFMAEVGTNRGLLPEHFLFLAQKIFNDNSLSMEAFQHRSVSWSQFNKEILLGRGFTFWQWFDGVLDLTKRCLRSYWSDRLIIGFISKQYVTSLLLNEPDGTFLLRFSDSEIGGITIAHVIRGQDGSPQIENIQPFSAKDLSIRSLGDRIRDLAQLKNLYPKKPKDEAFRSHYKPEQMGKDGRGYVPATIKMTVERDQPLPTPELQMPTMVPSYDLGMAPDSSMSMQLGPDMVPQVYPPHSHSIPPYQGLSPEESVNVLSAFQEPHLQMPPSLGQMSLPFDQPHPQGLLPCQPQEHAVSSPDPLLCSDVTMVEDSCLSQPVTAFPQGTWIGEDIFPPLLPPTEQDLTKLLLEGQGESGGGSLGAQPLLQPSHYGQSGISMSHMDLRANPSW
Assay: MSD-pSTAT-PBMC Assay (pSTAT6, IL-4 stimulated)
Format: cell-based
Conditions: compound 3 hrs, then 1 ng/mL IL-4 for 10 min, Table 115
Procedure, shortened: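 Thawed human PBMC rested overnight in IMDM/10% FBS, then got compound for 3 hrs before a 10 min cytokine pulse: 1 ng/mL IL-4 for pSTAT6, 10 ng/mL IL-6 for pSTAT3. Lysates went to MSD sandwich capture on total STAT6 or STAT3 with phospho-specific detection. IC50 came from background-subtracted, DMSO-normalized signal.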

SMILES	IC50 (STAT6, PBMC) [nM]	IC50 (PBMC, read-out: STAT6) [nM]
CC(C)OC(=O)[C@H](C)NP(=O)(Cc1ccc2ccc(C(=O)N[C@H]3CCCC[C@H]4CC[C@@H](C(=O)N5C[C@@H](c6cc[nH]c(=O)c6)CC56CC6)N4C3=O)cc2c1)Oc1ccccc1 (stereo partly drawn) [Compound 424, isopropyl (((7-(((3S,6S,10aS)-5-oxo-3-((R)-6-(2-oxo-1,2-dihydropyridin-4-yl)-4-azaspiro[2.4]heptane-4-carbonyl)decahydropyrrolo[1,2-a]azocin-6-yl)carbamoyl)naphthalen-2-yl)methyl)(phenoxy)phosphoryl)-L-alaninate]	100 to 1000	
CCCOC(=O)[C@H](C)NP(=O)(Oc1ccccc1)C(F)c1ccc2ccc(C(=O)N[C@H]3CCCC[C@H]4CC[C@@H](C(=O)N5CCC(c6cccnc6)C5)N4C3=O)cc2c1 (stereo partly drawn) [Compound 427, propyl ((fluoro(7-(((3S,6S,10aS)-5-oxo-3-(3-(pyridin-3-yl)pyrrolidine-1-carbonyl)decahydropyrrolo[1,2-a]azocin-6-yl)carbamoyl)naphthalen-2-yl)methyl)(phenoxy)phosphoryl)-L-alaninate]	< 100	
CCCOC(=O)[C@H](C)NP(=O)(Oc1ccccc1)C(F)c1ccc2ccc(C(=O)N[C@H]3CCCC[C@H]4CC[C@@H](C(=O)N5CC(c6cccnc6)CC56CC6)N4C3=O)cc2c1 (stereo partly drawn) [Compound 429, propyl ((fluoro(7-(((3S,6S,10aS)-5-oxo-3-(6-(pyridin-3-yl)-4-azaspiro[2.4]heptane-4-carbonyl)decahydropyrrolo[1,2-a]azocin-6-yl)carbamoyl)naphthalen-2-yl)methyl)(phenoxy)phosphoryl)-L-alaninate]	< 100	
C[C@H](NP(=O)(Cc1ccc2ccc(C(=O)N[C@H]3CCCC[C@H]4CC[C@@H](C(=O)N5CC(c6ccccc6)CC56CC6)N4C3=O)cc2c1)Oc1ccccc1)C(=O)OCC(C)(C)C (stereo partly drawn) [Compound 436, neopentyl (((7-(((3S,6S,10aS)-5-oxo-3-(6-phenyl-4-azaspiro[2.4]heptane-4-carbonyl)decahydropyrrolo[1,2-a]azocin-6-yl)carbamoyl)naphthalen-2-yl)methyl)(phenoxy)phosphoryl)-L-alaninate]	> 3000	
CCCOC(=O)[C@H](C)NP(=O)(Oc1ccccc1)C(F)c1ccc2ccc(C(=O)N[C@H]3CCCC[C@H]4CC[C@@H](C(=O)N5CC(c6ccn(C)c(=O)c6)CC56CC6)N4C3=O)cc2c1 (stereo partly drawn) [Compound 440, propyl ((fluoro(7-(((3S,6S,10aS)-3-(6-(1-methyl-2-oxo-1,2-dihydropyridin-4-yl)-4-azaspiro[2.4]heptane-4-carbonyl)-5-oxodecahydropyrrolo [1,2-a]azocin-6-yl)carbamoyl)naphthalen-2-yl)methyl)(phenoxy)phosphoryl)-L-alaninate]	< 100	
CCCOC(=O)[C@H](C)NP(=O)(Oc1ccccc1)C(F)c1ccc2ccc(C(=O)N[C@H]3CCCC[C@H]4CC[C@@H](C(=O)N5C[C@@H](c6ccn(C)c(=O)c6)CC56CC6)N4C3=O)cc2c1 (stereo partly drawn) [Compound 441, propyl ((fluoro(7-(((3S,6S,10aS)-3-((R)-6-(1-methyl-2-oxo-1,2-dihydropyridin-4-yl)-4-azaspiro[2.4]heptane-4-carbonyl)-5-oxodecahydropyrrolo [1,2-a]azocin-6-yl)carbamoyl)naphthalen-2-yl)methyl)(phenoxy)phosphoryl)-L-alaninate]	< 100	
CCCOC(=O)[C@H](C)NP(=O)(Oc1ccccc1)C(F)c1ccc2ccc(C(=O)N[C@H]3CCCC[C@H]4CC[C@@H](C(=O)N5C[C@H](c6ccccc6)[C@@H](C#N)C56CC6)N4C3=O)cc2c1 (stereo partly drawn) [Compound 442, propyl (((7-(((3S,6S,10aS)-3-((6S,7R)-7-cyano-6-phenyl-4-azaspiro[2.4]heptane-4-carbonyl)-5-oxodecahydropyrrolo [1,2-a]azocin-6-yl)carbamoyl)naphthalen-2-yl)fluoromethyl) (phenoxy)phosphoryl)-L-alaninate]	< 100	
CCCOC(=O)[C@H](C)NP(=O)(Oc1ccccc1)C(F)c1ccc2ccc(C(=O)N[C@H]3CCCC[C@H]4CC[C@@H](C(=O)N5C[C@H](c6ccn(C)c(=O)c6)CC56CC6)N4C3=O)cc2c1 (stereo partly drawn) [Compound 443, propyl ((fluoro(7-(((3S,6S,10aS)-3-((S)-6-(1-methyl-2-oxo-1,2-dihydropyridin-4-yl)-4-azaspiro[2.4]heptane-4-carbonyl)-5-oxodecahydropyrrolo [1,2-a]azocin-6-yl)carbamoyl)naphthalen-2-yl)methyl)(phenoxy)phosphoryl)-L-alaninate]	100 to 1000	
CCCOC(=O)[C@H](C)NP(=O)(Cc1ccc2sc(C(=O)N[C@H]3CCCC[C@H]4CC[C@@H](C(=O)N5C[C@@H](C#N)[C@H](c6ccccc6)C5)N4C3=O)cc2c1)Oc1ccccc1 (stereo partly shown) [Compound 444]		100 to 1000
CCCOC(=O)[C@H](C)NP(=O)(Oc1ccccc1)C(F)c1ccc2sc(C(=O)N[C@H]3CCCC[C@H]4CC[C@@H](C(=O)N5CC(c6cccnc6)CC56CC6)N4C3=O)cc2c1 (stereo partly drawn) [Compound 448, propyl ((fluoro(2-(((3S,6S,10aS)-5-oxo-3-(6-(pyridin-3-yl)-4-azaspiro[2.4]heptane-4-carbonyl)decahydropyrrolo[1,2-a]azocin-6-yl)carbamoyl)benzo [b]thiophen-5-yl)methyl)(phenoxy)phosphoryl)-L-alaninate]	< 100	
CCCOC(=O)[C@H](C)NP(=O)(Oc1ccccc1)C(F)c1ccc2sc(C(=O)N[C@H]3CCCC[C@H]4CC[C@@H](C(=O)N5CC(c6ccn(C)c(=O)c6)CC56CC6)N4C3=O)cc2c1 (stereo partly drawn) [Compound 449, propyl ((fluoro(2-(((3S,6S,10aS)-3-(6-(1-methyl-2-oxo-1,2-dihydropyridin-4-yl)-4-azaspiro[2.4]heptane-4-carbonyl)-5-oxodecahydropyrrolo [1,2-a]azocin-6-yl)carbamoyl)benzo [b]thiophen-5-yl)methyl)(phenoxy)phosphoryl)-L-alaninate]	100 to 1000	
CCCOC(=O)[C@H](C)NP(=O)(Oc1ccccc1)C(F)c1ccc2ccc(C(=O)N[C@H]3CCCC[C@H]4CC[C@@H](C(=O)N5CCC(c6ccn(C)c(=O)c6)C5)N4C3=O)cc2c1 (stereo partly drawn) [Compound 450, propyl ((fluoro(7-(((3S,6S,10aS)-3-(3-(1-methyl-2-oxo-1,2-dihydropyridin-4-yl)pyrrolidine-1-carbonyl)-5-oxodecahydropyrrolo [1,2-a]azocin-6-yl)carbamoyl)naphthalen-2-yl)methyl)(phenoxy)phosphoryl)-L-alaninate]	100 to 1000	
CCCOC(=O)[C@H](C)NP(=O)(Oc1ccccc1)C(F)c1ccc2ccc(C(=O)N[C@H]3CCCC[C@H]4CC[C@@H](C(=O)N5CCC(F)(c6ccn(C)c(=O)c6)C5)N4C3=O)cc2c1 (stereo partly drawn) [Compound 451, propyl ((fluoro(7-(((3S,6S,10aS)-3-(3-fluoro-3-(1-methyl-2-oxo-1,2-dihydropyridin-4-yl)pyrrolidine-1-carbonyl)-5-oxodecahydropyrrolo [1,2-a]azocin-6-yl)carbamoyl)naphthalen-2-yl)methyl)(phenoxy)phosphoryl)-L-alaninate]	100 to 1000	
CCCOC(=O)[C@H](C)NP(=O)(Oc1ccccc1)C(F)c1ccc2sc(C(=O)N[C@H]3CCCC[C@H]4CC[C@@H](C(=O)N5C(=O)N(c6cccnc6)C(=O)C56CC6)N4C3=O)cc2c1 (stereo partly drawn) [Compound 452, propyl (((2-(((3S,6S,10aS)-3-(5,7-dioxo-6-(pyridin-3-yl)-4,6-diazaspiro[2.4]heptane-4-carbonyl)-5-oxodecahydropyrrolo [1,2-a]azocin-6-yl)carbamoyl)benzo [b]thiophen-5-yl)fluoromethyl) (phenoxy)phosphoryl)-L-alaninate]	< 100	
CCCOC(=O)[C@H](C)NP(=O)(Oc1ccccc1)C(F)c1ccc2ccc(C(=O)N[C@H]3CCC[C@H]4CC[C@@H](C(=O)N5CC(c6cccnc6)CC56CC6)N4C3=O)cc2c1 (stereo partly drawn) [Compound 453, propyl ((fluoro(7-(((3S,6S,9aS)-5-oxo-3-(6-(pyridin-3-yl)-4-azaspiro[2.4]heptane-4-carbonyl)octahydro-1H-pyrrolo[1,2-a]azepin-6-yl)carbamoyl)naphthalen-2-yl)methyl)(phenoxy)phosphoryl)-L-alaninate]	100 to 1000	
CCCOC(=O)[C@H](C)NP(=O)(Oc1ccccc1)C(F)c1ccc2ccc(C(=O)N[C@H]3CCCC[C@H]4CC[C@@H](C(=O)N5CCC(c6ccn(C7CC7)c(=O)c6)C5)N4C3=O)cc2c1 (stereo partly drawn) [Compound 455, propyl (((7-(((3S,6S,10aS)-3-(3-(1-cyclopropyl-2-oxo-1,2-dihydropyridin-4-yl)pyrrolidine-1-carbonyl)-5-oxodecahydropyrrolo [1,2-a]azocin-6-yl)carbamoyl)naphthalen-2-yl)fluoromethyl) (phenoxy)phosphoryl)-L-alaninate]	> 3000	
